The target in this experiment is T1, IRAK4 (Homo sapiens, UniProt Q9NWZ3).
T1 sequence (Q9NWZ3 1-460): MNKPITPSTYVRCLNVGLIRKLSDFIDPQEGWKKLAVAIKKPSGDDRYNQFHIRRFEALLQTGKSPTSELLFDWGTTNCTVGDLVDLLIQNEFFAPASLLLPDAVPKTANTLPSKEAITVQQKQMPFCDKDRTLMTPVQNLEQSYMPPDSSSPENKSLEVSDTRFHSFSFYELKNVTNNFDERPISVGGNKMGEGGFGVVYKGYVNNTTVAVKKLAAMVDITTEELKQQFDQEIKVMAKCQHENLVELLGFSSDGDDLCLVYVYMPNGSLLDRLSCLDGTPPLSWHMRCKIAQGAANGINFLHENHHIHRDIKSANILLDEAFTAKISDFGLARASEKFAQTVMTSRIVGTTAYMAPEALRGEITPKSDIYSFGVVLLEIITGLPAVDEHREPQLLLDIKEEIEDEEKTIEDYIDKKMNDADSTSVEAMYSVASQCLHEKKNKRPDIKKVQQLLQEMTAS
As to the kind of experiment: IRAK-4 activity inhibition assay (Caliper). Type of experiment: biochemical. Conditions: 37 μM ATP, 3.5 nM IRAK4. As to the method:
A 1× kinase base buffer was prepared from 50 mM HEPES, pH 7.5 and 0.0015% Brij-35. A stop buffer was prepared from 100 mM HEPES, pH 7.5, 0.015% Brij-35, 0.2% Coating Reagent #3, and 50 mM EDTA.
Test compound was diluted to 50× of the final desired highest inhibitor concentration in reaction by 100% DMSO. 100 μl of this compound dilution was transferred to a well in a 96-well plate.
Test compound was serially diluted by transferring 30 μl to 60 μl of 100% DMSO in the next well and so forth for a total of 10 concentrations. 100 μl of 100% DMSO was added to two empty wells for no compound control and no enzyme control in the same 96-well plate.
A new 96-well plate was marked as intermediate plate. 5 μl of compound serial dilution was transferred from source plate to the corresponding wells of the intermediate plate. 45 μl of 1× kinase base buffer (KB buffer) was added to each well of the intermediate plate. The intermediate plate was placed for 10 min on a shaker.
5 μl of each well was transferred from the 96-well intermediate plate to a 384-well plate in duplicates. […] A2 of the 96-well plate is transferred to A3 and A4 of the 384-well plate, and so on.
IRAK4 and DTT in 1× kinase base buffer was added.
Assay plate already contained 5 μl of compound in 10% DMSO. Added 10 μl of 2.5× enzyme solution to each well of the 384-well assay plate, except no enzyme control wells. […] Added 10 μl of 1× kinase base buffer to no enzyme control wells in the assay plate. Incubated at room temperature for 10 min.
Added 10 μl of 2.5× peptide solution to each well of the 384-well assay plate. […] Incubated at 28° C. for 40 minutes. Added 25 μl of stop buffer to stop reaction. Collected data on Caliper.
Copied conversion % data from Caliper program. Converted conversion % values to percent inhibition values. Percent inhibition=(max−conversion %)/(max−min)*100, where “max” means the conversion % of DMSO control and “min” means the conversion % of no enzyme control.
The compound numbers correspond to the compound numbers in Table 1. […] “NA” stands for “not assayed.”

The results in this text go back to patent publication US20160193216A1 (Nimbus Iris, Inc., priority 2012, published 2016).

A value given as a limit tells only on which side of the number the result lay.

Turning to `CCOC(=O)C1CCc2sc3ncnc(N[C@H]4CC[C@H](N)CC4)c3c21` (stereo partly drawn) [Compound I-2, ethyl 4-(((1r,4r)-4-aminocyclohexyl)amino)-6,7-dihydro-5H-cyclopenta[4,5]thieno[2,3-d]pyrimidine-5-carboxylate], the IC50 (commonly the concentration at which inhibition is half-maximal) was in the range of 20 to 50 µM.
With `CN(C)[C@H]1CC[C@H](Nc2ncnc3sc4c(c23)C(C(=O)NCc2cccnc2)CC4)CC1` (stereo partly drawn) [Compound I-25, 12-[[4-(dimethylamino)cyclohexyl]amino]-N-(pyridin-3-ylmethyl)-7-thia-9,11-diazatricyclo[6.4.0.0̂[2,6]]dodeca-1(12),2(6),8,10-tetraene-3-carboxamide] the figure was 20 to 50 µM; with `CO[C@@H](C[C@H]1CCc2sc3ncnc(O[C@H]4CC[C@H](N(C)C)CC4)c3c21)C(N)=O` [Compound I-78, (2S)-3-[(3R)-12-[[4-(dimethylamino)cyclohexyl]oxy]-7-thia-9,11-diazatricyclo[6.4.0.0[2,6]]dodeca-1(8),2(6),9,11-tetraen-3-yl]-2-methoxypropanamide], under 5 µM; with `CN(C)[C@H]1CC[C@H](Oc2ncnc3sc4c(c23)C(C)(C)CC4)CC1` [Compound I-7, (1r,4r)-4-((5,5-dimethyl-6,7-dihydro-5H-cyclopenta[4,5]thieno[2,3-d]pyrimidin-4-yl)oxy)-N,N-dimethylcyclohexanamine], under 5 µM.
With `CCC(O)C[C@@H]1CCc2sc3ncnc(O[C@H]4CC[C@H](N5CCOCC5)CC4)c3c2C1` (stereo partly drawn) [Compound I-183, 1-((R)-4-(((1r,4R)-4-morpholinocyclohexyl)oxy)-5,6,7,8-tetrahydrobenzo[4,5]thieno[2,3-d]pyrimidin-6-yl)butan-2-ol] the figure was under 5 µM.
With `CN(C)[C@H]1CC[C@H](Nc2ncnc3sc4c(c23)C(C(=O)NCCCO)CC4)CC1` (stereo partly drawn) [Compound I-28, 12-[[4-(dimethylamino)cyclohexyl]amino]-N-(3-hydroxypropyl)-7-thia-9,11-diazatricyclo[6.4.0.0̂[2,6]]dodeca-1(12),2(6),8,10-tetraene-3-carboxamide] the figure was 20 to 50 µM; with `C[C@@H](O)C[C@H]1CCc2sc3ncnc(O[C@H]4CC[C@H](N5CCOCC5)CC4)c3c21` [Compound I-82, (R)-1-((R)-4-(((1r,4R)-4-morpholinocyclohexyl)oxy)-6,7-dihydro-5H-cyclopenta[4,5]thieno[2,3-d]pyrimidin-5-yl)propan-2-ol], under 5 µM; with `CN(C)[C@H]1CC[C@H](Oc2ncnc3sc4c(c23)CN(C(=O)CCCO)CC4)CC1` [Compound I-190, 1-(3-[[4-(dimethylamino)cyclohexyl]oxy]-8-thia-4,6, 12-triazatricyclo[7.4.0.0[2,7]]trideca-1(9),2,4,6-tetraen-12-yl)-4-hydroxybutan-1-one], 20 to 50 µM.
The molecule `CN(C)[C@H]1CC[C@H](Oc2ncnc3sc4c(c23)[C@@H](C[C@H](O)C(F)(F)F)CC4)CC1` [Compound I-70, (S)-3-((R)-4-(((1r,4R)-4-(dimethylamino)cyclohexyl)oxy)-6,7-dihydro-5H-cyclopenta[4,5]thieno[2,3-d]pyrimidin-5-yl)-1,1,1-trifluoropropan-2-ol] showed an IC50 of under 5 µM.
With `CN(C)[C@H]1CC[C@H](Oc2ncnc3sc4c(c23)[C@@H](CCc2ncco2)CC4)CC1` [Compound I-63, N,N-dimethyl-4-[[(3S)-3-[2-(1,3-oxazol-2-yl)ethyl]-7-thia-9,11-diazatricyclo[6.4.0.0[2,6]]dodeca-1(8),2(6),9,11-tetraen-12-yl]oxy]cyclohexan-1-amine] the figure was under 5 µM; with `CC[S@@+]([O-])C[C@H]1CCc2sc3ncnc(O[C@H]4CC[C@H](N(C)C)CC4)c3c21` (single isomer, unassigned) [Compound I-46], under 5 µM; with `CC(=O)N1CCc2sc3ncnc(N[C@H]4CC[C@H](N(C)C)CC4)c3c2C1` [Compound I-173, 1-(3-[[4-(dimethylamino)cyclohexyl]amino]-8-thia-4,6,12-triazatricyclo[7.4.0.0-[2,7]]trideca-1(9),2(7),5-trien-12-yl)ethan-1-one], 5 to 20 µM.
With `CC[C@]1(N(C)C)CC[C@H](Oc2ncnc3sc4c(c23)[C@@H](C[C@H](C)O)CC4)CC1` [Compound I-103, (2S)-1-[(3R)-12-[[4-(dimethylamino)-4-ethylcyclohexyl]oxy]-7-thia-9,11-diazatricyclo[6.4.0.0[2,6]]dodeca-1(12),2(6),8,10-tetraen-3-yl]propan-2-ol] the figure was 5 to 20 µM; with `CCSCC1CCc2sc3ncnc(O[C@H]4CC[C@H](N(C)C)CC4)c3c21` (stereo partly drawn) [Compound I-39, 4-([3-[(ethylsulfanyl)methyl]-7-thia-9,11-diazatricyclo[6.4.0.0[2,6]]dodeca-1(12),2(6),8,10-tetraen-12-yl]oxy)-N,N-dimethylcyclohexan-1-amine], under 5 µM.
With `CN(C)[C@H]1CC[C@H](Oc2ncnc3sc4c(c23)[C@@H](C[C@H](N)C(N)=O)CC4)CC1` [Compound I-160, (2S)-2-amino-3-[(3R)-12-[[4-(dimethylamino)cyclohexyl]oxy]-7-thia-9,11-diazatricyclo[6.4.0.0[2,6]]dodeca-1(8),2(6),9,11-tetraen-3-yl]propanamide] the figure was under 5 µM; with `NC(=O)[C@@H](O)C[C@H]1CCc2sc3ncnc(O[C@H]4CC[C@H](N5CCCC5)CC4)c3c21` [Compound I-226, (S)-2-hydroxy-3-((R)-4-(((1r,4R)-4-(pyrrolidin-1-yl)cyclohexyl)oxy)-6,7-dihydro-5H-cyclopenta[4,5]thieno[2,3-d]pyrimidin-5-yl)propanamide], under 5 µM.
Take `CN(C)[C@H]1CC[C@H](Oc2ncnc3sc4c(c23)C(CCO)CC4)CC1` (stereo partly drawn) [Compound I-21, 2-(4-(((1r,4r)-4-(dimethylamino)cyclohexyl)oxy)-6,7-dihydro-5H-cyclopenta[4,5]thieno[2,3-d]pyrimidin-5-yl)ethanol]: the IC50 was under 5 µM.
With `CN1Cc2sc3ncnc(O[C@H]4CC[C@H](N5CCOCC5)CC4)c3c2C1` [Compound I-196, 4-methyl-12-[[4-(morpholin-4-yl)cyclohexyl]oxy]-7-thia-4,9,11-triazatricyclo[6.4.0.0[2,6]]dodeca-1(12),2(6),8, 10-tetraene] the figure was 5 to 20 µM.
With `CCS(=O)(=O)CC1CCc2sc3ncnc(O[C@H]4CC[C@H](N(C)C)CC4)c3c21` (stereo partly drawn) [Compound I-47, 4-([3-[(ethanesulfonyl)methyl]-7-thia-9,11-diazatricyclo[6.4.0.0[2,6]]dodeca-1(12),2(6),8,10-tetraen-12-yl]oxy)-N,N-dimethylcyclohexan-1-amine] the figure was under 5 µM; with `NC(=O)C[C@H]1CCc2sc3ncnc(O[C@H]4CC[C@@H](N5CCNC(=O)C5)CC4)c3c21` [Compound I-157, 2-((R)-4-(((1s,4S)-4-(3-oxopiperazin-1-yl)cyclohexyl)oxy)-6,7-dihydro-5H-cyclopenta[4,5]thieno[2,3-d]pyrimidin-5-yl)acetamide], under 5 µM; with `CC[C@H](O)C[C@H]1CCc2sc3ncnc(O[C@H]4CC[C@](CC)(N(C)C)CC4)c3c21` [Compound I-104, (2S)-1-[(3R)-12-[[4-(dimethylamino)-4-ethylcyclohexyl]oxy]-7-thia-9,11-diazatricyclo[6.4.0.0[2,6]]dodeca-1(8),2(6),9,11-tetraen-3-yl]butan-2-ol], 5 to 20 µM.
With `CCCOC(=O)N1CCc2sc3ncnc(N[C@H]4CC[C@H](N5CCOCC5)CC4)c3c2C1` [Compound I-186, propyl 3-[[4-(morpholin-4-yl)cyclohexyl]amino]-8-thia-4,6, 12-triazatricyclo[7.4.0.0[2,7]]trideca-1(9),2(7),3,5-tetraene-12-carboxylate] the figure was under 5 µM.
Regarding `CCOC(=O)C1CCc2sc3ncnc(N[C@H]4CC[C@H](N(C)C)CC4)c3c21` (stereo partly drawn) [Compound I-1], the IC50 was 5 to 20 µM.
With `CC[S@+]([O-])C[C@H]1CCc2sc3ncnc(O[C@H]4CC[C@H](N(C)C)CC4)c3c21` (single isomer, unassigned) [Compound I-45] the figure was under 5 µM.
